Assay results: publication PMC8122790, “Chemical Constituents of Cassia abbreviata and Their Anti-HIV-1 Activity” (Molecules, 2021)
Like-named read-outs stand apart in the source and are kept apart here.

How the values were obtained:
HIV-1 IIIB = assay: microbe, parasite or virus in culture; settings: read-out: IC50 HIV-1 Infection
Experimental: The crude extract of Cassia abbreviata and all isolated compounds were assessed for their anti-HIV activity in MT4 cells infected by the reference strain HIV-1 IIIB (Figure 3). […] Enfuvirtide and Plerixafor are entry inhibitors for positive controls.
(§1) MT4 cells were obtained through the NIH AIDS Reagent Program and cultured in RPMI 1640 (Lonza, Wijchen, the Netherlands) supplemented with 10% heat-inactivated fetal bovine serum (Lonza, the Netherlands) and 2mM L-glutamine (Invitrogen, Gosselies, Belgium). MT-4 cells were incubated with the crude extract of Cassia abbreviatta or the tested compounds alone to assess cytotoxicity, or HIV-1 IIIB alone or a mixture of the tested extract and compounds and HIV-1 IIIB viruses to assess protection against HIV-1 infection. After five days, protection from viral infection and the cytotoxicity were evaluated in parallel using (3-(4,5-dimethylthiazol-2-yl)-2,5-diphenyltetrazolium bromide (MTT, Sigma, Liège, Belgium) by measuring OD540 and OD690 using a POLARstar Omega Plate Reader (BMG Labtech, Ortenberg, Germany). Data were normalized to cells without treatment. Values of OD540−OD690 were calculated to determine IC50 values in Prism. The entry inhibitors, enfuvirtide, and AMD3100 (Sigma Aldrich, Liège, Belgium), were used as positive controls.

[1] = Cytotoxicity in MT4 cells (MTT); format: cell-based; settings: for IC50 at 5 days: human
Experimental: as §1, with “After five days, protection from viral infection and the cytotoxicity were evaluated in parallel using (3-(4,5-dimethylthiazol-2-yl)-2,5-diphenyltetrazolium bromide (MTT, Sigma, Liège, Belgium) by measuring OD540 and OD690 using a POLARstar Omega Plate Reader (BMG Labtech, Ortenberg, Germany).” left out

[2] = Human immunodeficiency virus 1, IIIB, MT4, 120 h
[3] = MT4 cells incubated with compound alone, five days, MTT, read-out: IC50 Cytotoxicity

Molecule | IC50 (HIV-1 IIIB; [2]) [µM] | IC50 at 5 days [1] [µM] | IC50 at 5 days [1, 3] [µM] | IC50 (HIV-1 IIIB; MT4 cells infected by reference strain HIV-1 IIIB, five days, MTT, mean ± SD, three experiments) [µM] | IC50 ([1]; MT4 cells incubated with compound alone, five days, MTT) [µM]
CC12OC(=O)CC1C1Oc3c(c(O)cc(O)c3C3c4ccc(O)cc4OC(c4ccc(O)cc4)C3O)CC1O2 (stereo not drawn) [Cassiabrevone (1), guibourtinidol (4α→8) planchol A] | 11.9 ± 2.14 | > 333 | – | – | –
Oc1ccc([C@H]2Oc3cc(O)ccc3[C@@H](c3c(O)cc(O)c4c3O[C@H](c3ccc(O)cc3)[C@H](O)C4)[C@@H]2O)cc1 [Guibourtinidol-(4α→8)-epiafzelechin (4), guibourtinidol-(4α→8)-epiafzelechin] | 15.4 ± 9.09 | > 333 | – | – | –
CC1(C)CC[C@]2(C(=O)O)CC[C@]3(C)C(=CC[C@@H]4[C@@]5(C)CC[C@H](O)C(C)(C)[C@@H]5CC[C@]43C)[C@@H]2C1 [Oleanolic acid (17), oleanolic acid] | 7.95 ± 2.57 | – | > 333 | – | –
CCCCCCCCCCCCCCCC(=O)O [Palmitic acid (28), Palmitic acid] | 16 ± 3.04 | > 333 | – | – | –
Oc1cc(O)cc(/C=C/c2ccc(O)c(O)c2)c1 [Piceatannol (22), piceatannol] | 3.58 ± 0.27 | > 333 | – | – | –
c1cc(CN2CCCNCCNCCCNCC2)ccc1CN1CCCNCCNCCCNCC1 [Plerixafor (AMD3100), Plerixafor, reference compound] | 0.075 ± 0.009 | > 1 | – | – | –
O=C1c2c(O)cc(O)cc2OC(c2ccc(O)c(O)c2)C1O (stereo not shown) [Taxifolin (8), taxifolin] | 49 ± 5.02 | – | > 333 | – | –
Enfuvirtide | – | – | – | 0.0096 ± 0.001 | –
enfuvirtide | – | – | – | – | > 1
